Among the data in ChEMBL document CHEMBL1133886, “Synthesis of N-alkyl substituted indolocarbazoles as potent inhibitors of human cytomegalovirus replication” (Bioorg Med Chem Lett, 2001) are IC50, CCID50 and inhibition values, retold here.

In one test the test system is Human betaherpesvirus 5. Briefly: Inhibitory activity against human cytomegalo virus (HCMV) using standard plaque reduction assay. It counts as functional, organism-based.
The target in a further test is Protein kinase C (PKC). Nature of the test: Inhibition of protein kinase C. It counts as protein assay.
The subject of the next test is Vero. Briefly: Compound was evaluated for its cytotoxicity against Vero cell line. It counts as functional, Chlorocebus sabaeus.
In test [1] the target is Protein kinase C (PKC) (Homo sapiens) (UniProt O94806+P41743+P17252+P05129+Q05655+P05771+Q05513+Q02156+P24723+Q15139+Q04759). Nature of the test: Percent inhibition of protein kinase C at 100 uM. It counts as protein assay.
The test system of test [2] is MRC5. Briefly: Inhibitory concentration against 2599R strain of HCMV in MRC5 cells. It counts as functional, cell-based. To be noted: Homo sapiens.
The subject of test [3] is MRC5. Briefly: Inhibitory concentration against Xba F strain of HCMV in MRC5 cells. It counts as functional, cell-based. To be noted: Homo sapiens.
In test [4] the test system is MRC5. Briefly: Inhibitory concentration against Towne strain of HCMV in MRC5 cells. As to conditions: Homo sapiens. It counts as functional, cell-based.
The test system of test [5] is MRC5. Nature of the test: Inhibitory concentration against AD169 strain of HCMV in MRC5 cells. The test is classed as functional, cell-based. As to conditions: Homo sapiens.
Test [6] has as its system MRC5. Nature of the test: Inhibitory concentration against Davis strain of HCMV in MRC5 cells. It counts as functional, cell-based. As to conditions: Homo sapiens.
Test [7] concerns MRC5. Nature of the test: Inhibitory concentration against C8805 HCMV strain of MRC5 cells. It counts as functional, cell-based. As to conditions: Homo sapiens.
Test [8] concerns MRC5. Nature of the test: Inhibitory concentration against Towne HCMV strain of MRC5 cells. The test is classed as functional, cell-based. To be noted: Homo sapiens.
Test [9] relates to MRC5. Briefly: Inhibitory concentration against AD169 HCMV strain of MRC5 cells. The test is classed as functional, cell-based. As to conditions: Homo sapiens.
The subject of test [10] is MRC5. Nature of the test: Inhibitory concentration against Davis HCMV strain of MRC5 cells. The test is classed as functional, cell-based. As to conditions: Homo sapiens.
Test [11] concerns MRC5. Briefly: Inhibitory concentration against 2599R HCMV strain of MRC5 cells. To be noted: Homo sapiens. The test is classed as functional, cell-based.
For test [12], the system named is MRC5. Nature of the test: Inhibitory concentration against Xba F HCMV strain of MRC5 cells. It counts as functional, cell-based. To be noted: Homo sapiens.

By IC50 is commonly meant the concentration needed to halve the response being measured. The low end stands for higher potency, the high end for lower potency. Take `O=C1NC(=O)c2c1c1c3ccccc3[nH]c1c1c2c2ccccc2n1CC(F)(F)F`: the concentration for half-maximal inhibition (IC50) was 70 nM in the test on Human betaherpesvirus 5 and 25000 nM on Protein kinase C (PKC). Further, in the test on Vero, the CCID50 was under 8 µM.

One may read the inhibition as the drop in the measured response relative to a control, in per cent. On to `O=C1NC(=O)c2c1c1c3ccccc3[nH]c1c1c2c2ccccc2n1Cc1ccccc1`, for which, in the test on Vero, the CCID50 was under 31 µM. For the same compound, the inhibition in [1] is 23%.

As for `CC(C)Cn1c2ccccc2c2c3c(c4c5ccccc5[nH]c4c21)C(=O)NC3=O`, half-maximal inhibition in the test with Human betaherpesvirus 5 (IC50) was put at 30 nM. The compound further yielded a CCID50 with Vero of under 8 µM. Also, the inhibition in [1] was determined as 71%.

Take `CCCn1c2ccccc2c2c3c(c4c5ccccc5[nH]c4c21)C(=O)NC3=O`: the IC50 in the test on Human betaherpesvirus 5 was 150 nM; on Protein kinase C (PKC), 50000 nM. Also, the CCID50 in the test with Vero is under 8 µM.

As to `Nc1nc2c(ncn2COC(CO)CO)c(=O)[nH]1` [GANCICLOVIR], the 50% inhibitory concentration (IC50) in the test with Human betaherpesvirus 5 was 3000 nM; in the test on MRC5 [2], 1600 nM; in the test on MRC5 [3], over 10000 nM; in the test with MRC5 [4], 1500 nM; in the test with MRC5 [5] it was 3000 nM; with MRC5 [6] it was 1400 nM. Also, in the test on Vero, the CCID50 is over 500 µM.

As for `CC(C)n1c2ccccc2c2c3c(c4c5ccccc5[nH]c4c21)C(=O)NC3=O`, the IC50 in the test on Human betaherpesvirus 5 was determined as 100 nM; against Protein kinase C (PKC), 50000 nM. This compound also came in with a CCID50 with Vero of 28 µM.

Regarding `Cn1c2ccccc2c2c3c(c4c5ccccc5[nH]c4c21)C(=O)NC3=O`, the 50% inhibitory concentration (IC50) in the test with Human betaherpesvirus 5 was 60 nM. The compound also came in with a CCID50 with Vero of over 31 µM. The inhibition in test [1] is 47%.

Consider `CCn1c2ccccc2c2c3c(c4c5ccccc5[nH]c4c21)C(=O)NC3=O`, for which the IC50 in the test with Human betaherpesvirus 5 came to 19 nM; in the test with MRC5 [7], 60 nM; against Protein kinase C (PKC), 10000 nM; in the test with MRC5 [8] it was 90 nM; with MRC5 [9] it was 19 nM; in the test on MRC5 [10], 30 nM. Moreover, the IC50 with MRC5 [11] worked out at 130 nM; in the test on MRC5 [12], 20 nM. Moreover, in the test on Vero, the CCID50 is over 125 µM.

In the test on Human betaherpesvirus 5, `O=C1NC(=O)c2c1c1c3ccccc3[nH]c1c1[nH]c3ccccc3c21` [STAUROSPORINE AGLYCON] gave an IC50 of 200 nM. In the test on Vero, this compound came in with a CCID50 of over 125 µM. This compound showed an inhibition in test [1] of under 50%.
